From US20200352921A1, “ARYL-SULFONAMIDE AND ARYL-SULFONE DERIVATIVES AS TRPML MODULATORS” (CalyGene Biotechnolgy, Inc., priority 2017, published 2020) come the findings set out here.

Like-named read-outs stand apart in the source and are kept apart here.

Holding throughout (format): cell-based
For one test, the target named is T1, ML1 channel (Homo sapiens, UniProt Q9GZU1).
T1 construct: host or cells: unnamed cells treated with vacuolin-1; isolated enlarged endolysosomes
The experiment in a line: Endolysosomal electrophysiology (whole-endolysosome patch-clamp). The method, then: Endolysosomal electrophysiology was performed in isolated endolysosomes using a modified patch-clamp method. Briefly, cells were treated with 1 μM vacuolin-1 for 2-5 h to increase the size of endosomes and lysosomes. Whole-endolysosome recordings were performed on isolated enlarged LELs. The bath (internal/cytoplasmic) solution contained 140 mM K-gluconate, 4 mM NaCl, 1 mM EGTA, 2 mM Na2-ATP, 2 mM MgCl2, 0.39 mM CaCl2), 0.2 mM GTP and 10 mM HEPES (pH adjusted with KOH to 7.2; free [Ca^2+]i˜100 nM based on the Maxchelator software (http://maxchelator.stanford.edu/)). The pipette (luminal) solution consisted of a ‘Low pH Tyrode's solution with 145 mM NaCl, 5 mM KCl, 2 mM CaCl2), 1 mM MgCl2, 10 mM HEPES, 10 mM MES and 10 mM glucose (pH 4.6). All bath solutions were applied via a perfusion system to achieve a complete solution exchange within a few seconds. Data were collected using an Axopatch 2A patch clamp amplifier, Digidata 1440 and pClamp 10.0 software (Axon Instruments). Whole-cell currents were digitized at 10 kHz and filtered at 2 kHz. All experiments were conducted at room temperature (21-23° C.), and all recordings were analyzed with pClamp 10.0 and Origin 8.0 (OriginLab, Northampton, Mass., USA). ML1 channel activity was induced by synthetic agonists ML-SA1 or […], and inhibited by ML-S13 or ML-S14.
In this electrophysiology assays, compounds were tested with both basal and agonist-induced ML1 currents. Examples B11, B11a, B11b, B40, B41, B44, B5, B47, B48, B49, B50, B51, B54, B57, B58, B59, B62, B63, B68, B69, B71, B72, B75, B75, and B76 were tested with basal ML1 currents. […] In particular, Examples B11, B11a and B11b inhibited basal ML1 currents with IC50<100 nM. Examples B11, B11a and B11b are shown below. Examples B1-4, B2-1, B-2-2, B2-3, B2-4, 3-4, B5, B6-2, B9-4, B-10, B-10-4, B11, B12, B13, B14, B15, B16, B18, B19, B20, B21, B22, B23, B25, B26, B27, B28, B29, B30, B32, B34, B40, B41, B44, B45, B46, B47, B48, B49, B50, B51, B52, B59, and B66 were tested in ML1 currents activated by ML1 agonists (ML-SA1 or ML-SA5). […] In particular, B11 inhibited the ML-SA1-activated currents with IC50<1,000 nM. Example B11 is shown below.

The subject of another test is cultured parietal cells. Description: Gastric acid secretion assay (histamine-stimulated VAC formation). The method, then: Acid secretion was measured in cultured parietal cells upon histamine stimulation. Briefly, after mucosal digestion of isolated glands, supernatants were pelleted by centrifugation at 200×g, washed three times with HEPES-MEM, and re-suspended in Medium A. Approximately 70% of the total gastric cells suspended in Medium A were parietal cells. The cells were plated onto Matrigel-coated 18-mm round coverslips or 35-mm dishes and incubated at 37° C. In cultured parietal cells, upon secretagogue stimulation, apical canalicular membranes are engulfed into the cell to form multiple actin-wrapped vacuoles known as vacuolar apical compartments (VACs), which remain separate from the basolateral membrane and free TVs in the cytosol (Nakada, S. L., Crothers, J. M., Jr., Machen, T. E., and Forte, J. G. (2012). Apical vacuole formation by gastric parietal cells in primary culture: effect of low extracellular Ca2+. American journal of physiology Cell physiology 303, C1301-1311.). […] In resting WT cells, small (diameter <2 μm) VACs were observed occasionally with a total surface area <10 μm^2. VACs formed within 10-20 min after bath application of histamine and then fused together to generate one or a few large VACs (up to 8 μm in diameter; total VAC surface area >50 μm^2). The apical membrane vacuole surface area during resting and stimulated states was measured for all VACs that were visible in multiple (3-6) Z-cross sections. Data were analyzed in ImageJ (NIH).
In this acid secretion assay, histamine-stimulated VAC formation was abolished by ML-S4 at 10 μM (Zhang X, Cheng X, Yu L, Yang J, Calvo R, Patnaik S, Hu X, Gao Q, Yang M, Lawas M, Delling M, Marugan J, Ferrer M, and Xu H. 2016, PMID: 27357649).

For another test, the target named is T2, ML1 (UniProt Q99J21).
T2 construct: fused on or other part: GCaMP3 (genetically encoded Ca2+ indicator) fused to ML1 as the reporter handle; in the published construct it sits at the N-terminus
The experiment in a line: Lysosomal Ca2+ imaging in Tet-On HEK-GCaMP3-ML1 cells. The following applies: zero Ca2+ solution, ML-SA1 trigger, read-out: inhibition of ML-SA1-induced lysosomal Ca2+ release, IC50. The method, then: GCaMP3-ML1 expression was induced in Tet-On HEK-GCaMP3-ML1 cells 20-24 h prior to experiments using […] doxycycline. GCaMP3-ML1 fluorescence was monitored at an excitation wavelength of 470 nm (F470) using an EasyRatio Pro system (PTI). Cells were bathed in Tyrode's solution containing 145 mM NaCl, 5 mM KCl, 2 mM CaCl2), 1 mM MgCl2, 10 mM Glucose, and 20 mM Hepes (pH 7.4). Lysosomal Ca^2+ release was measured in a zero Ca^2+ solution containing 145 mM NaCl, 5 mM KCl, 3 mM MgCl2, 10 mM glucose, 1 mM EGTA, and 20 mM HEPES (pH 7.4). Ca^2+ concentration in the nominally free Ca^2+ solution is estimated to be 1-10 μM. With 1 mM EGTA, the free Ca^2+ concentration is estimated to be <10 nM based on the Maxchelator software (http://maxchelator.stanford.edu/). Experiments were carried out 0.5 to 6 hrs after plating. ML1-mediated lysosomal Ca^2+ release was triggered by synthetic agonists ML-SA1, and inhibited by ML-S13 and aforementioned testing compounds.

The mark [1] stands for this setting: basal ML1 currents, isolated enlarged endolysosomes, read-out: inhibition of basal ML1 currents, IC50.

T1 sequence (Q9GZU1 whole entry): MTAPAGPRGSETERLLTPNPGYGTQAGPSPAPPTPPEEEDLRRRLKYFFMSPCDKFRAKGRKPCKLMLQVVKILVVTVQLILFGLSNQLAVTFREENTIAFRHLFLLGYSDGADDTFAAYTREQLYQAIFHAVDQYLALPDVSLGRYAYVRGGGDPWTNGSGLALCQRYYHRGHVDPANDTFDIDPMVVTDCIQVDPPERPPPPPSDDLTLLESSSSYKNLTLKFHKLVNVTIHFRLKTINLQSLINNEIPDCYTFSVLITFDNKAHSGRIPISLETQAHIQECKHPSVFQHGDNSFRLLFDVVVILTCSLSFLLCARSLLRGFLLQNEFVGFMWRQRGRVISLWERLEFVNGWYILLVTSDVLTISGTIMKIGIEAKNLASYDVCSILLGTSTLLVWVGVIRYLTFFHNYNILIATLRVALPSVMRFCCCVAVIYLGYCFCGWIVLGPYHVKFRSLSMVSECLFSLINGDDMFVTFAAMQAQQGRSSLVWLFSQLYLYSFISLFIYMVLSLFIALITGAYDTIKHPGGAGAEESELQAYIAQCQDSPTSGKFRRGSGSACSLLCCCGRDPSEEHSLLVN

As to `Cc1ccc(S(=O)(=O)N2c3cc(F)ccc3CCC2CCc2ccc(Cl)cc2F)cc1` (stereo not drawn) [Example B11, 2-(4-Chloro-2-fluorophenethyl)-7-fluoro-1-tosyl-1,2,3,4-tetrahydroquinoline], the IC50 (commonly the midpoint of a concentration-inhibition curve) on ML1 channel (setting [1]) is under 0.1 µM; on ML1 channel (currents activated by ML1 agonist ML-SA1, read-out: inhibition of ML-SA1-activated ML1 currents, IC50), under 1 µM. Besides, the “histamine-induced VAC formation” value in the test with cultured parietal cells (at 0.5 μM) is listed as “significantly inhibited”; in the test on cultured parietal cells (at 2 μM), “abolished”.
As to `Cc1ccc(S(=O)(=O)N2c3cc(F)ccc3CC[C@H]2CCc2ccc(Cl)cc2F)cc1` [Example B11b], the IC50 on ML1 channel (setting [1]) is under 0.1 µM; at ML1, under 1 µM. Besides, the entries for the “histamine-induced VAC formation” value in the test with cultured parietal cells (at 0.5 μM) and with cultured parietal cells (at 2 μM) were “significantly inhibited” and “abolished”, respectively.
On to `Cc1ccc(S(=O)(=O)N2c3cc(F)ccc3CC[C@@H]2CCc2ccc(Cl)cc2F)cc1` [Example B11a], for which, on ML1 channel (setting [1]), the IC50 is under 0.1 µM.
